# Measured values from patent US10364256B2 (GlaxoSmithKline Intellectual Property Development Limited, priority 2015, dated 2019).
# Legend:
# [1] = tested on: NQO1 specific enzyme activity in BEAS-2B cells (marker for NRF2 activation); test: BEAS-2B NQO1 MTT Assay; type: cell-based; settings: Homo sapiens, compound incubated 48 hours, read-out: EC50 (NQO1 specific enzyme activity induction)
# Method in brief: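 BEAS-2B cells treated with compound for 48 h at 37 °C, then lysed; NQO1 activity in lysates measured kinetically by MTT reduction at A570 over 30 min. pEC50 from 3-parameter fit of ΔOD/min versus log concentration; lysate also taken for Cell Titer Glo.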
# [2] = biological target: T1, Keap1 Kelch domain (321-609) / TAMRA-labeled 16mer NRF2 peptide (ETGE motif) (Homo sapiens, UniProt Q14145); test: NRF2-Keap1 FP Assay (Keap1 Kelch fluorescence polarization); type: binding; settings: 20 nM Keap1 (321-609), 8 nM Tamra labeled peptide
# T1 construct: the Kelch domain (321-609) of Keap1 is used
# T1 sequence (Q14145 321-609): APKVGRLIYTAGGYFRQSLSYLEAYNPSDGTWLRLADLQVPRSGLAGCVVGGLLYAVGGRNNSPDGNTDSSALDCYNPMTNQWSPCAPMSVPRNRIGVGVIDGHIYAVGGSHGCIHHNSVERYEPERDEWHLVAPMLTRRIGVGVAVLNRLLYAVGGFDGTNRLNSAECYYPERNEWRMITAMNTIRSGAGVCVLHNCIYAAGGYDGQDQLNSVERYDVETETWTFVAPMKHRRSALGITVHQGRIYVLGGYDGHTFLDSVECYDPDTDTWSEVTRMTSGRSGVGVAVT
# Method in brief: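 Compound dilutions (3-fold) were incubated 1 hr at room temperature with 20 nM Keap1 Kelch (321-609) and 8 nM TAMRA-labeled ETGE 16mer peptide. Buffer was 50 mM Tris pH 8.0, 100 mM NaCl, 5 mM MgCl2, 1 mM DTT, 2 mM CHAPS, 0.005% BSA. Fluorescence polarization (mP) was normalized to controls and fitted with a four-parameter equation to give pIC50.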
# [3] = biological target: T2, full length Keap1 protein / full length NRF2 protein (Homo sapiens, UniProt Q14145); test: NRF2-Keap1 TR-FRET Low Protein Assay; type: binding; settings: 1.25 nM Keap1 FlagHis and 2.5 nM biotin-NRF2 added
# T2 construct: full length NRF2 protein and full length Keap1 protein (Keap1 exists a dimer) are used; His
# T2 sequence (Q14145 whole entry): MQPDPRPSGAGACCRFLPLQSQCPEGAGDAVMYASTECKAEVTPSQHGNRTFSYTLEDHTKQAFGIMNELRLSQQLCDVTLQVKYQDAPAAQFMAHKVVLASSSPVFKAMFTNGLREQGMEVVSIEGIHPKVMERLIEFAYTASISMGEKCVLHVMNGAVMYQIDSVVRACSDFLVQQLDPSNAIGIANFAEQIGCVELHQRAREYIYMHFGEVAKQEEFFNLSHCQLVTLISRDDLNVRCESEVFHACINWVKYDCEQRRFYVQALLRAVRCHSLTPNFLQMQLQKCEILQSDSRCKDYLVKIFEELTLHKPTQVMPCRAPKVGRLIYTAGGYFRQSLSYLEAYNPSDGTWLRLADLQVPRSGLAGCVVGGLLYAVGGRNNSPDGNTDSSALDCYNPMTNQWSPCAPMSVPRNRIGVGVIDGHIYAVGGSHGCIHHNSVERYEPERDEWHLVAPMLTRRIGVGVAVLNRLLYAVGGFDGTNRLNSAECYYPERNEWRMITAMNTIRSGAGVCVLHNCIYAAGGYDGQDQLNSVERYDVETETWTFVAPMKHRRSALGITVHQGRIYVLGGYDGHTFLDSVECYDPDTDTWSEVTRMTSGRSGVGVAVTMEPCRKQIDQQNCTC
# Method in brief: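 Flag-tagged full-length Keap1 was preincubated with compound (3-fold series) for 2.25 h at 37 °C in Tris pH 8.0/MgCl2/NaCl/BSA/DTT/CHAPS. Biotin-Avi-NRF2 (added at 2.5 nM) was then bound for 1.25 h at 4 °C. Eu-streptavidin/anti-Flag-APC TR-FRET (665/615 nm) was read after 1 h at RT, and pIC50 came from a four-parameter fit.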
SMILES,IC50 [2] [nM],IC50 [3] [nM],EC50 [1] [nM]
"C[C@H](Oc1cccc(-c2cccc(-n3ncc(C(=O)O)c3[C@@H]3C[C@H]3c3cnn(C)c3)c2)c1)C1CCCCC1 (racemic) [Example 103, 1-(3′-((S)-1-cyclohexylethoxy)-[1,1′-biphenyl]-3-yl)-5-(trans-2-(1-methyl-1H-pyrazol-4-yl)cyclopropyl)-1H-pyrazole-4-carboxylic Acid]",1000 to 10000,1000 to 10000,100 to 1000
"Cn1cc([C@@H]2C[C@H]2c2c(C(=O)O)cnn2-c2cccc(-c3cccc(/C=C/C4CCCCC4)c3)c2)nn1 (racemic) [Example 113, rac-1-(3′-((E)-2-Cyclohexylvinyl)-[1,1′-biphenyl]-3-yl)-5-(trans-2-(1-methyl-1H-1,2,3-triazol-4-yl)cyclopropyl)-1H-pyrazole-4-carboxylic Acid]",100 to 1000,100 to 1000,10 to 100
"Cn1cc([C@@H]2C[C@H]2c2c(C(=O)O)cnn2-c2cccc(-c3cccc(CCC4CCCCC4)c3)c2)nn1 (racemic) [Example 114, rac-1-(3′-(2-Cyclohexylethyl)-[1,1′-biphenyl]-3-yl)-5-(-2-(1-methyl-1H-1,2,3-triazol-4-yl)cyclopropyl)-1H-pyrazole-4-carboxylic Acid]",100 to 1000,10 to 100,10 to 100
"CCC[C@@H]1CCCCN1C(=O)c1cccc(-c2cccc(-n3ncc(C(=O)O)c3[C@@H]3C[C@H]3c3cc(C)no3)c2)c1F (racemic) [Example 117, 1-(2′-fluoro-3′-((R)-2-propylpiperidine-1-carbonyl)-[1,1′-biphenyl]-3-yl)-5-(trans-2-(3-methylisoxazol-5-yl)cyclopropyl)-1H-pyrazole-4-carboxylic Acid]",10 to 100,< 10,10 to 100
"CCC1COc2ccccc2CN1Cc1cccc(-c2cccc(-n3ncc(C(=O)O)c3[C@H]3C[C@@H]3c3cn(C)nn3)c2)c1 (mixture of isomers) [Example 118, 1-(3′-((3-Ethyl-2,3-dihydrobenzo[f][1,4]oxazepin-4(5H)-yl)methyl)-[1,1′-biphenyl]-3-yl)-5-((1,2-trans)-2-(1-methyl-1H-1,2,3-triazol-4-yl)cyclopropyl)-1H-pyrazole-4-carboxylic Acid]",10 to 100,< 10,100 to 1000
"CCC1c2ccccc2OCCN1Cc1cccc(-c2cccc(-n3ncc(C(=O)O)c3[C@H]3C[C@@H]3c3cn(C)nn3)c2)c1 (mixture of isomers) [Example 123, 1-(3′-((5-Ethyl-2,3-dihydrobenzo[f][1,4]oxazepin-4(5H)-yl)methyl)-[1,1′-biphenyl]-3-yl)-5-((1,2-trans)-2-(1-methyl-1H-1,2,3-triazol-4-yl)cyclopropyl)-1H-pyrazole-4-carboxylic Acid]",10 to 100,10 to 100,10 to 100
"Cn1cc([C@@H]2C[C@H]2c2c(C(=O)O)cnn2-c2cccc(-c3cccc(CN4Cc5ccccc5CC(C)(C)C4)c3)c2)nn1 (racemic) [Example 126, 1-(3′-((4,4-dimethyl-4,5-dihydro-1H-benzo[c]azepin-2(3H)-yl)methyl)-[1,1′-biphenyl]-3-yl)-5-((1,2-trans)-2-(1-methyl-1H-1,2,3-triazol-4-yl)cyclopropyl)-1H-pyrazole-4-carboxylic Acid]",100 to 1000,100 to 1000,100 to 1000

# Second part, led by results:
IC50 [2] [nM],IC50 [3] [nM],SMILES,EC50 [1] [nM]
10 to 100,< 10,"CC[C@@H]1CN(Cc2cccc(-c3cccc(-n4ncc(C(=O)O)c4[C@H]4C[C@@H]4c4cn(C(C)C)nn4)c3)c2)Cc2ccccc2O1 (racemic) [Example 128, 1-(3′-(((R)-2-ethyl-2,3-dihydrobenzo[f][1,4]oxazepin-4(5H)-yl)methyl)-[1,1′-biphenyl]-3-yl)-5-((1,2-trans)-2-(1-isopropyl-1H-1,2,3-triazol-4-yl)cyclopropyl)-1H-pyrazole-4-carboxylic Acid]",100 to 1000
10 to 100,< 10,"CC[C@@H]1CN(Cc2cccc(-c3cccc(-n4ncc(C(=O)O)c4[C@@H]4C[C@H]4c4cn(C)nn4)c3)c2)S(=O)(=O)c2cccnc2O1 (racemic) [Example 138, 1-(3′-(((R)-4-ethyl-1,1-dioxido-3,4-dihydro-2H-pyrido[2,3-b][1,4,5]oxathiazepin-2-yl)methyl)-[1,1′-biphenyl]-3-yl)-5-((1,2-trans)-2-(1-methyl-1H-1,2,3-triazol-4-yl)cyclopropyl)-1H-pyrazole-4-carboxylic acid]",1000 to 10000
10 to 100,10 to 100,"CN1CCN(Cc2cccc(-c3cccc(-n4ncc(C(=O)O)c4[C@@H]4C[C@H]4c4cn(C)nn4)c3)c2)S(=O)(=O)c2ccccc21 (racemic) [Example 140, 1-(3′-((5-methyl-1,1-dioxido-4,5-dihydrobenzo[f][1,2,5]thiadiazepin-2(3H)-yl)methyl)-[1,1′-biphenyl]-3-yl)-5-((1,2- trans)-2-(1-methyl-1H-1,2,3-triazol-4-yl)cyclopropyl)-1H-pyrazole-4-carboxylic acid]",1000 to 10000
10 to 100,10 to 100,"Cn1cc([C@@H]2C[C@H]2c2c(C(=O)O)cnn2-c2cccc(-c3cccc(S(=O)(=O)N4Cc5ccccc5OC(C)(C)C4)c3)c2)nn1 (racemic) [Example 141, 1-(3′-((2,2-Dimethyl-2,3-dihydrobenzo[f][1,4]oxazepin-4(5H)-yl)sulfonyl)-[1,1′-biphenyl]-3-yl)-5-((1,2-trans)-2-(1-methyl-1H-1,2,3-triazol-4-yl)cyclopropyl)-1H-pyrazole-4-carboxylic Acid]",100 to 1000
10 to 100,10 to 100,"CCCC1CCCCN1S(=O)(=O)c1cccc(-c2cccc(-n3ncc(C(=O)O)c3[C@@H]3C[C@H]3c3cn(C)nn3)c2)c1 (mixture of isomers) [Example 142, 5-((1,2-trans)-2-(1-Methyl-1H-1,2,3-triazol-4-yl)cyclopropyl)-1-(3′-((2-propylpiperidin-1-yl)sulfonyl)-[1,1′-biphenyl]-3-yl)-1H-pyrazole-4-carboxylic Acid]",100 to 1000
10 to 100,10 to 100,"Cn1cc([C@@H]2C[C@H]2c2c(C(=O)O)cnn2-c2cccc(-c3cccc(S(=O)(=O)N4CCCCC4)c3)c2)nn1 (racemic) [Example 143, 5-((1,2-trans)-2-(1-Methyl-1H-1,2,3-triazol-4-yl)cyclopropyl)-1-(3′-(piperidin-1-ylsulfonyl)-[1,1′-biphenyl]-3-yl)-1H-pyrazole-4-carboxylic Acid]",100 to 1000
100 to 1000,10 to 100,"CC(Oc1cccc(-c2cccc(-n3ncc(C(=O)O)c3[C@H]3C[C@@H]3c3cn(C)nn3)c2)c1)[C@H]1CC[C@H](C(F)(F)F)CC1 (mixture of isomers) [Example 180, 5-((1,2-trans)-2-(1-Methyl-1H-1,2,3-triazol-4-yl)cyclopropyl)-1-(3′-((R)-1-((1R,4R)-4-(trifluoromethyl)cyclohexyl)ethoxy)-[1,1′-biphenyl]-3-yl)-1H-pyrazole-4-carboxylic acid]",1 to 10
100 to 1000,10 to 100,CC(Oc1cccc(-c2cc(O)cc(-n3ncc(C(=O)O)c3[C@H]3C[C@@H]3c3cn(C)nn3)c2)c1)C1CCCCC1 (mixture of isomers) [Example 194],100 to 1000
